The values that follow come from ChEMBL document CHEMBL1201862, “PubChem BioAssay data set” (2004).

Common to all, as to test: growth of human tumour cells (NCI), 48 h
Assay [1] relates to M14.
Assay [2] relates to HCT-116.
For assay [3], the system named is NCI-H23.
Assay [4] deals with SW-620.
Assay [5] relates to HCT-15.
For assay [6], the system named is SF-295.
For assay [7], the system named is LXFL 529.
Assay [8] concerns SNB-19.
Assay [9] deals with OVCAR-8.
Assay [10] concerns UACC-257.
The test system of assay [11] is KM12.
The subject of assay [12] is SK-MEL-5.
Assay [13] deals with OVCAR-3.
For assay [14], the system named is CAKI-1.
Assay [15] deals with DU-145.
The subject of assay [16] is RPMI-8226.
Assay [17] deals with BT-549.
The subject of assay [18] is RXF 393.
In assay [19] the test system is MDA-N.
Assay [20] concerns NCI/ADR-RES.

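Protocol summary: plate cells (96-well), add compound at 5 concentrations, incubate 48 h, interpolate endpoints linearly. The concentration for 50% growth inhibition is given as GI50.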 The source made the active and inactive calls. Rule as the data show it: active = GI50 up to about 1.1 µM and inactive = higher. A value given as a limit tells only on which side of the number the result lay.

With `CC(C)N(C(=O)C12C3C4C5(C(=O)O)C(C1C35I)C42C(=O)O)C(C)C` (stereo not drawn), the GI50 is > 100 µM (inactive) in assay [1]; > 100 µM (inactive) in assay [2]; > 100 µM (inactive) in assay [3]; > 100 µM (inactive) in assay [4]; over 100 µM in [5]; > 100 µM (inactive) in [6]. Besides, the GI50 in [7], in [8], in assay [9], in assay [10], in [11] and in assay [12] was > 100 µM (inactive) each time. Further, the GI50 in [13] was > 100 µM (inactive).

As for `CC(=O)c1ccc2c3c1[C@H]1O[C@H]1c1cccc(c1-3)[C@@H]1O[C@H]21`, the GI50 was 1.61 µM (inactive) in [1]; 1.29 µM (inactive) in assay [14]; 2.37 µM (inactive) in assay [15]; 1.74 µM (inactive) in assay [2]; 1.49 µM (inactive) in assay [3]; 0.855 µM (active) in [4]. For the same compound, the GI50 was 0.959 µM in assay [5]; 4.52 µM (inactive) in assay [6]; 2.09 µM (inactive) in assay [16]; 2.98 µM (inactive) in assay [8]; 1.87 µM (inactive) in assay [17]; 1.56 µM (inactive) in assay [9]. Further, the GI50 is 1.93 µM (inactive) in [18]; 2.32 µM (inactive) in [19]; 1.98 µM (inactive) in assay [20]; 2.04 µM (inactive) in [10]; 1.87 µM (inactive) in [11]; 2.17 µM (inactive) in [12]. In assay [13], the GI50 was 3.27 µM (inactive).

For `COc1ccc2nc3n(c2c1)C(c1c(Cl)cccc1Cl)SC3` (stereo not drawn), the GI50 in assay [1], in assay [14], in assay [15], in assay [2], in assay [3] and in [4] was > 100 µM (inactive) each time. Besides, the GI50 in assay [5] is over 100 µM; in [6] it was > 100 µM (inactive); in [16] it was > 100 µM (inactive); in assay [8], > 100 µM (inactive); in [17], > 100 µM (inactive); in assay [9], > 100 µM (inactive). Also, the GI50 in assay [18] is > 100 µM (inactive); in [19], 87.9 µM (inactive); in assay [20], > 100 µM (inactive); in assay [10], > 100 µM (inactive); in assay [11] it was > 100 µM (inactive); in assay [12], > 100 µM (inactive). Besides, the GI50 in assay [13] was > 100 µM (inactive).

For `COc1ccc(/C=N/n2c(Cc3ccc(Cl)cc3)n[nH]c2=O)c(OC)c1`, the GI50 was 94.8 µM (inactive) in assay [1]; 45.4 µM (inactive) in assay [14]; 67.8 µM (inactive) in [15]; > 100 µM (inactive) in assay [2]; 29.4 µM (inactive) in assay [3]; > 100 µM (inactive) in assay [4]. Further, the GI50 in assay [5] is 36.3 µM; in assay [6] it was 19 µM (inactive); in assay [16] it was > 100 µM (inactive); in [8], 20.7 µM (inactive); in assay [17] it was 35.2 µM (inactive); in assay [9], 33 µM (inactive). Besides, the GI50 in [18] was 19.1 µM (inactive); in assay [19] it was 57.9 µM (inactive); in [20], 12.3 µM (inactive); in assay [10], 41.1 µM (inactive); in assay [11] it was 27.3 µM (inactive); in assay [12], > 10 µM (inactive). Moreover, the GI50 in assay [13] was 35.2 µM (inactive).

As for `Cn1nc(S(N)(=O)=O)s/c1=N/C(N)=S`, the GI50 in [1], in assay [14], in assay [15], in assay [2], in assay [3] and in [4] was > 100 µM (inactive) each time. The GI50 is over 100 µM in assay [5]; > 100 µM (inactive) in assay [6]; > 100 µM (inactive) in assay [16]; > 100 µM (inactive) in assay [8]; > 100 µM (inactive) in assay [17]; > 100 µM (inactive) in assay [9]. Besides, the GI50 in assay [18], in assay [19], in [20], in assay [10], in assay [11] and in [12] was > 100 µM (inactive) each time. In addition, in [13], the GI50 is > 100 µM (inactive).

For `CN(C)CCCNc1ncnc2c1ncn2C1OC(CO)C(O)C1O` (stereo not drawn), the GI50 in assay [1], in assay [14], in [15], in assay [2], in assay [3] and in assay [4] was > 100 µM (inactive) throughout. Further, the GI50 in [5] is over 100 µM; in assay [6], > 100 µM (inactive); in [16] it was > 100 µM (inactive); in [8], > 100 µM (inactive); in assay [17], 92.7 µM (inactive); in [9], > 100 µM (inactive). For the same compound, the GI50 in assay [18], in assay [19], in [20], in assay [10], in assay [11] and in [12] was > 100 µM (inactive) in each case. For the same compound, in assay [13], the GI50 is > 100 µM (inactive).

Turning to `O=S(=O)(O)c1ccc(/N=N/c2ccc(/N=N/c3c(O)c(S(=O)(=O)O)cc4cc(S(=O)(=O)O)ccc34)cc2)cc1`, the GI50 in assay [1], in [14], in [15], in assay [2], in [3] and in assay [4] was > 100 µM (inactive) each time. The GI50 in assay [5] was over 100 µM; in assay [6], > 100 µM (inactive); in assay [16] it was > 100 µM (inactive); in assay [8], > 100 µM (inactive); in [17], > 100 µM (inactive); in assay [9], > 100 µM (inactive). The GI50 in assay [18], in assay [19], in [20], in assay [10], in assay [11] and in assay [12] was > 100 µM (inactive) each time. The GI50 in assay [13] was > 100 µM (inactive).

`COc1ccc(NS(=O)(=O)c2ccc(NC(NC(=O)CC(C)C)(C(F)(F)F)C(F)(F)F)cc2)nn1`: the GI50 in [1], in assay [14], in assay [15], in assay [2], in assay [3] and in assay [4] was > 100 µM (inactive) in each case. The GI50 is over 100 µM in assay [5]; > 100 µM (inactive) in assay [6]; > 100 µM (inactive) in assay [16]; > 100 µM (inactive) in assay [8]; > 100 µM (inactive) in assay [17]; > 100 µM (inactive) in [9]. For the same compound, the GI50 in assay [18], in assay [19], in assay [20], in assay [10], in [11] and in assay [12] was > 100 µM (inactive) throughout. Moreover, the GI50 in assay [13] is > 100 µM (inactive).

`O=C(O)CCC(NC(=O)/C(=C/c1ccccc1)NC(=O)c1ccccc1)C(=O)O` (stereo not drawn): the GI50 in assay [1], in [14], in assay [15], in assay [2], in [3] and in assay [4] was > 100 µM (inactive) throughout. The GI50 is over 100 µM in assay [5]; > 100 µM (inactive) in assay [6]; > 100 µM (inactive) in assay [16]; > 100 µM (inactive) in assay [8]; > 100 µM (inactive) in [17]; > 100 µM (inactive) in [9]. For the same compound, the GI50 in [18], in [19], in [20], in assay [10], in assay [11] and in assay [12] was > 100 µM (inactive) each time. Further, the GI50 in assay [13] is > 100 µM (inactive).

Regarding `COc1cc2c(cc1C)NC(=O)/C2=C/c1c(Cl)[nH]c2cc(C)c(OC)cc12`, the GI50 in assay [1] was 2.15 µM (inactive); in [14], 4.04 µM (inactive); in assay [15], 2.36 µM (inactive); in [2], 3.85 µM (inactive); in assay [3] it was 1.91 µM (inactive); in [4] it was 3.64 µM (inactive). Moreover, the GI50 in assay [5] was 3.72 µM; in assay [6] it was 1.21 µM (inactive); in [16], 3.98 µM (inactive); in assay [8], 4.63 µM (inactive); in assay [17] it was 1.36 µM (inactive); in assay [9] it was 5.98 µM (inactive). Moreover, the GI50 is 6.81 µM (inactive) in assay [18]; 2.84 µM (inactive) in [19]; 3.19 µM (inactive) in assay [20]; 9.64 µM (inactive) in assay [10]; 4.22 µM (inactive) in [11]; 2.62 µM (inactive) in [12]. The GI50 in [13] was 1.94 µM (inactive).

As for `Cc1cc(-c2nc3c(O)cccc3s2)ccc1N`, the GI50 in assay [1] is 16.7 µM (inactive); in assay [14] it was 21.3 µM (inactive); in [15], > 100 µM (inactive); in [2], 20.4 µM (inactive); in assay [3], 26.9 µM (inactive); in assay [4], 41.4 µM (inactive). The GI50 in [5] was 25.4 µM; in assay [6], 25.9 µM (inactive); in assay [16], 45 µM (inactive); in assay [8], 15.3 µM (inactive); in [17], 22.1 µM (inactive); in assay [9] it was 20 µM (inactive). Moreover, the GI50 is 67.9 µM (inactive) in assay [18]; 25.4 µM (inactive) in assay [19]; 19.9 µM (inactive) in assay [20]; 20.3 µM (inactive) in assay [10]; 23.3 µM (inactive) in [11]; 33.2 µM (inactive) in assay [12]. Moreover, the GI50 in assay [13] is 26.5 µM (inactive).
